# According to patent US20160303068A1, “Compositions and Methods For Treating Brain Injury and Brain Diseases” (University of Washington through its Center for …, priority 2013, published 2016):
# “Also recorded” adds a separate entry of the source.
# Assays:
# [1] = tested on: AD transgenic mouse models; conditions: in vivo; cited from earlier work
# [2] = tested on: rodent model of traumatic brain injury; assay: Fractional anisotropy imaging of external capsule integrity after CCI; assay type: in vivo, C57BL6 mice; conditions: following CCI; paclitaxel not intranasally administered
# Method: (§1) Rodent subjects (C57BL6 mice, 10 wks, male, n=12) had craniotomy over the right frontoparietal cortex of 5 mm, plus mild controlled cortical impact (CCI) surgery using a pneumatic impactor (AmScien Instruments, Richmond, Va.) at 6 m/s strike velocity, 1 mm depth of penetration, and 150 ms contact time, under isoflurane anesthesia. Immediately following CCI, 200 ug/kg paclitaxel (n=6) or vehicle (n=6) was applied to the brain injury site. Sham surgery (craniotomy, but no CCI) was performed on controls (n=3).
# The MPF results were corroborated using cross-relaxation imaging. Cross-relaxation imaging (CRI) is a quantitative magnetic resonance technique that measures the kinetic parameters of magnetization transfer between protons bound to water and protons bound to macromolecules. Here, in vivo, four-parameter CRI of normal rat brains (n=5) at 3.0 T was first directly compared to histology. The bound pool fraction, f, was strongly associated with myelin density (Pearson's r=0.99, p<0.001). The correlation persisted in separate analyses of gray matter (GM; r=0.89, p=0.046) and white matter (WM; r=0.97, p=0.029). The CRI results validated the MPF results, in that the taxane helped to preserve myelin density around the injury. Fractional anisotropy imaging was carried out to evaluate the integrity of underlying external capsule. […]
# spinal cord injury = conditions: after spinal cord injury; cited from earlier work
# [3] = tested on: rodent model of traumatic brain injury; assay: MRI (T1-weighted, quantitative T2 maps) of injury volume and edema after controlled cortical impact; assay type: in vivo, C57BL6 mice
# Method: as §1
# (§2) At 2 days post-surgery, gait assessment of the subjects was conducted using CatWalk automated gait analysis (Noldus Information Tech, The Netherlands) followed by high-tesla magnetic resonance imaging (14T MR Avance III Ultrashield, Bruker BioSpin, Billerica, Mass.). T1-weighted and quantitative T2 maps were obtained: MDEFT (3D modified driven equilibrium Fourier transform), […]: 12°, TR (repetition time): 5000 ms, TE (echo time): 1.9ms, resolution 0.140×0.140×0.25 mm^3, 64 slices; T2 map: TR=2000 ms, 16 echoes, spacing:6.7 ms, TE1: 6.7 ms, TE 2:13.4 ms, resolution 0.12×0.12×1.0 mm^3, 15 slices. Manual volume of interest (VOI) analysis of injury volume and volume of edema related to injury was performed.
# [4] = tested on: rodent model of traumatic brain injury; assay: Macromolecular proton fraction (MPF) imaging of myelin density adjacent to injury after CCI; assay type: in vivo, C57BL6 mice
# Method: as §1
# Macromolecular proton fraction (MPF) imaging is a quantitative magnetic resonance technique that measures the magnetization transfer between protons bound to water and protons bound to macromolecules. MPF imaging was performed to evaluate myelin degradation adjacent to injury. […] Mean myelin density was calculated for a region of interest (circular region having a diameter of […]) that was larger than the actual injury (1.5 mm).
# [5] = tested on: rodent model of traumatic brain injury; assay: CatWalk automated gait analysis after CCI; assay type: in vivo, C57BL6 mice
# Method: as §1, §2
# [6] = tested on: glia fibrillary acidic protein (GFAP) expression; assay: GFAP immunostain of CA1 region of hippocampus (reactive astrocytes); assay type: in vivo, 3×Tg-AD mice; conditions: intranasal 0.6 mg/kg at 2 week intervals for 3 months; vs saline
# Method: Histology and Westerns. All confocal microscopy and immunohistochemistry are performed on perfusion fixed tissue prepared from animals that, immediately after euthanasia with pentobaritol (100 mg/kg), are perfused with saline followed by 4 percent paraformaldehyde/saline. For biochemical experiments (Western blots, etc.) other animals are perfused after death with saline and then the brains are rapidly dissected and flash frozen in liquid N2. Brain sections corresponding to the olfactory bulb are stained for Fluoro-Jade (1:1000, Histo-Chem Inc., AR, USA) as a marker of degenerating neurons and can be used to assess if 9 months of paclitaxel intranasal treatment may be neurotoxic. Glial fibrillary acidic protein (GFAP, 1:1500, Dako, Carpinteria, Calif.), an astroglial marker, and ionized calcium-binding adapter molecule 1 (Iba-1) (1:1000 Dako, Carpinteria, Calif.), a marker of microglial activation are processed using Avidin-Biotin procedure, which uses biotinylated secondary antibodies, avidin coupled to horse radish peroxidase (HRP) and reacted with 3,3′diaminobenzidine.
# The application of paclitaxel to 3×Tg-AD mice (0.6 mg/kg at 2 week intervals for 3 months, intranasal administration) was investigated. It has been shown that microglia and astrocytes respond acutely to brain injury. […]
# 3×Tg-AD mice = assay: Manganese-enhanced MRI (MEMRI) of axonal transport rates in the olfactory tract, 3×Tg-AD mice; assay type: in vivo; conditions: intranasal 0.6 mg/kg, vs saline or young wild-type controls
# Text: MRI: Mice are anesthetized with isoflurane and scanned on an ultra-high resolution 14T MRI (Avance III, Bruker BioSpin Corp, Billerica, Mass.). Dynamic manganese enhanced magnetic resonance imaging (dyMEMRI): Mice are anesthetized with isoflurane and administered a unilateral injection of Sul of 1 M MnCl2 intranasally (with occlusion to block septal window). Parameters for magnetization prepared rapid gradient echo (MPRAGE) (TR/TE=11/5.3 ms; Ti=1000 ms; FA=9 deg acquired matrix 108×108 mm over 55 slices, voxel 0.2×0.2×0.4 mm3 interpolated to 0.1×0.1×0.2 mm3). […] MicroPET: Metabolic brain activity is assessed using FDG-PET performed under isoflurane anesthesia with 30 min uptake after 250 μCi intraperitoneal injection of FDG. […]
# The effect of intra-nasal treatment of taxanes on the development of neurodegenerative pathology in a model of Alzheimer's disease was also studied. […] Treatment effectiveness was assessed with the same outcome measures as described in Example 1.
# (§3) Intranasal paclitaxel (Hospira, Inc., Lake Forest, Ill.) was administered to 3×Tg-AD mice (0.6 mg/kg in 0.9 percent saline, […] per nostril). […] Dynamic T1-weighted MR imaging detected signal enhancement and post-processing algorithms calculate a relative rate of transport. […]
# [7] = [3H] paclitaxel distribution in brain via intranasal administration; assay type: in vivo, male CD-1 mice; conditions: 1 μCi [3H] paclitaxel in 1 μl PBS to the right nares
# Method: FIGS. 4 A and 4B are graphs showing [^3H] paclitaxel distribution via intranasal administration in male CD-1 mice, 8 weeks, after administration of 1 μCi of [^3H] paclitaxel in 1 μl PBS to the right nares;
# FIGS. 4A and 4B show distribution of a taxane (paclitaxel) in the brain, when the taxane is administered intranasally. […] Thus, the intranasally administered taxane can bypass the blood-brain barrier (BBB) via the olfactory epithelium, and thereby provide therapeutic effect to a subject. The treatment methods can advantageously administer drug to the brain (e.g., an injured area of the brain) while minimizing side effects in non-target organs. The methods can have widespread applications. For example, intranasal administration of taxanes can result in decreased neuroinflammation, and can therefore be used in treatment of neuroinflammatory conditions, such as neurodegenerative diseases including Alzheimer's disease and related tauopathies, multiple sclerosis, viral infections, Parkinson's disease, as well as head trauma and mild concussions.
# wild-type mice = assay: Manganese-enhanced MRI (MEMRI) of axonal transport rates, wild-type mice; assay type: in vivo; conditions: wild-type mice treated with paclitaxel vs young wild-type controls, p≦0.01
# Text: MRI: Mice are anesthetized with isoflurane and scanned on an ultra-high resolution 14T MRI (Avance III, Bruker BioSpin Corp, Billerica, Mass.). Dynamic manganese enhanced magnetic resonance imaging (dyMEMRI): Mice are anesthetized with isoflurane and administered a unilateral injection of Sul of 1 M MnCl2 intranasally (with occlusion to block septal window). Parameters for magnetization prepared rapid gradient echo (MPRAGE) (TR/TE=11/5.3 ms; Ti=1000 ms; FA=9 deg acquired matrix 108×108 mm over 55 slices, voxel 0.2×0.2×0.4 mm3 interpolated to 0.1×0.1×0.2 mm3). Mice are scanned dynamically for 45 min (early uptake) at 1 hour post administration, allowed to recover and scanned again at 4-6 hours post (late transport) for 60 min. DTI acquired as 4 shot echo planar image (EPI); TR/TE=4000/18 ms, 30 diffusion directions, multislice 2D, b=1000 s/mm2, FOV 19×19 mm, matrix size=128×128 with slice thickness=0.5 mm over 9 min. MicroPET: Metabolic brain activity is assessed using FDG-PET performed under isoflurane anesthesia with 30 min uptake after 250 μCi intraperitoneal injection of FDG. […]
# as §3
structure (smiles),measurement,setting,value
C/C1=C/C[C@@H](/C(C)=C/c2csc(C)n2)OC(=O)C[C@H](O)C(C)(C)C(=O)[C@H](C)[C@@H](O)[C@@H](C)CCC1 [epothilone D],cognitive performance,[1],improve cognitive performance
same,tau pathology,[1],reduce associated tau pathology
CC(=O)O[C@H]1C(=O)[C@@]2(C)[C@H]([C@H](OC(=O)c3ccccc3)[C@]3(O)C[C@H](OC(=O)[C@H](O)[C@@H](NC(=O)c4ccccc4)c4ccccc4)C(C)=C1C3(C)C)[C@]1(OC(C)=O)CO[C@@H]1C[C@@H]2O [paclitaxel],underlying white matter integrity (FA values in external capsule),[2],No significant improvement
same,axon regeneration,spinal cord injury,facilitate axon regeneration
same,injury volume,"[3]; 200 ug/kg applied to brain injury site immediately after CCI, MRI 2 days post-surgery, vs vehicle 9.96±2.3, p≦0.05",7.94±1.5 mm^3
same,hyperintense voxels (edema) on quantitative T2 maps,"[3]; 200 ug/kg applied to brain injury site, 2 days post-surgery, vs vehicle 11.92±3.0, p≦0.05",8.86±2.2 mm^3
same,reduction of hyperintense voxels (edema),"[3]; 200 ug/kg applied to brain injury site, vs vehicle",26%
same,reduction in injury volume,"[3]; 200 ug/kg applied to brain injury site, vs vehicle, T2 and T1 images",20%
same,injury volume on T1-weighted MRI (in words),[3]; paclitaxel versus saline treatment,indicating reduced injury
same,"MPF bound percent, injury side","[4]; mn±sd, vs vehicle 8.95±0.3, p≦0.05",9.45±0.4
same,"MPF bound percent, contralateral cortical area",[4]; vs vehicle,No difference
same,increase of MPF bound percent on the injury side,[4]; vs vehicle,6.6%
same,maximum print area,"[5]; 2 days post-surgery, vs vehicle 0.29±0.08, p≦0.05",0.38±0.09 cm^2
same,mean intensity,"[5]; 2 days post-surgery, vs vehicle 66.38±5.52, p≦0.05",79.45±14.26
same,"swing, decreased","[5]; right front (RF) and left hind (LF) only, vs vehicle",12%
same,"print length, increase","[5]; right hind (RH) only, vs vehicle",12%
same,gait parameters (in words),"[5]; short term, 8 days, paclitaxel over saline treated subjects",Improved gait parameters
same,"maximum print area, increased",[5]; vs vehicle,22-52%
same,"mean intensity, increased",[5]; vs vehicle,19-22%
same,"print area, increased",[5]; vs vehicle,20-45%
same,"print width, increased",[5]; vs vehicle,5-17%
same,GFAP expression / reactive astrocytes in CA1 region of hippocampus,[6],decreased evidence of activated astrocytes; also recorded: markedly reduced reactive astrocytes; also recorded: reduced GFAP expression levels; also recorded: showing reduced
same,axonal transport rates,3×Tg-AD mice,increased transport significantly; also recorded: Improved axonal transport rates; also recorded: relatively increased
same,brain regions taking up taxane (FIG. 4A),[7],"taken up by the olfactory bulbs, the striatum, the hippocampus, the frontal cortex, the hypothalamus, and the cerebellum"
same,regional brain uptake level (second distribution graph),[7],high striatum and hypothalamus uptake
same,axonal transport rates,wild-type mice,relatively increased
